Measurements reported in patent publication US20040253728A1, “New method” (priority 2000, published 2004).
*1 amine or outer side, *2 acyl side, *3 side chain or, on linkers, in order; H or OH if unused. Where a SMILES comes first, the peptide text is derived from it. Bridges are numbered along the chain shown (N, C = ends). Roman numbers before positions name the chains, in order. [ ]: non-standard residue; d: D form. Actinocin(9to1) = Cc1c2oc3c(C)ccc(C(=O)[*:1])c3nc-2c(C(=O)[*:2])c(N)c1=O; NMeV = CN[C@H](C(=O)O)C(C)C; Sar = CNCC(=O)O

Columns and labels:
[1] = system: ρ^0 (143B/206) and ρ^+ (143B) osteosarcoma cells; assay: Flow cytometric analysis of apoptotic cells (annexin V / propidium iodide); type: cell-based, human; details: for apoptosis induced in ρ^0 cells compared with ρ^+ cells (early apoptotic cells, annexin V positive/propidium iodide negative): 16 hours, 0.5 μM staurosporine, 100 ng/ml anti-Fas antibody or 20 ng/ml TNFα plus 100 ng/ml actinomycin D; for proapoptotic effect on ρ^0 or ρ^+ cells: agent alone
Method: (§1) A human osteosarcoma-derived cell line, 143B, containing mtDNA (ρ^+), and its mtDNA-less derivative, 143B/206 (ρ^0), were maintained in Dulbecco's Modified Eagle Medium (DMEM)-high glucose ([…]; GibcoBRL, Life Technologies AB, Sweden) containing 10% fetal bovine serum, and 100 IU/ml penicillin-streptomycin (GibcoBRL, Life Technologies AB, Sweden). The 143B/206 ρ^0 cells were additionally supplemented with 1 mM sodium pyruvate (GibcoBRL, Life Technologies AB, Sweden) and 50 μg/ml uridine (Sigma-Aldrich AB, Sweden) as described [King et al, Science 246:500-503 (1989)]. Cells were grown to sub-confluence.
We stained the cells with annexin V and propidium iodide using the Vybrant apoptosis assay kit 2 (Molecular Probes, Leiden, The Netherlands). Flow cytometric analyses were performed on a Beckton Dickinson flow cytometer (FACScan) and the results were analyzed by using the Cell Quest program (Beckton Dickinson).

[2] = system: ρ^0 (143B/206) and ρ^+ (143B) osteosarcoma cells; assay: Measurement of caspase 3 activity; type: cell-based, human; details: 16 hours; ρ^0 and ρ^+ cells; compared to untreated cells
Method: as §1
Caspase 3 activity was measured by the caspase 3 assay kit (Pharmingen, CA, USA). Briefly, a tetrapeptide labeled with the fluorochrome 7-amino-4-methylcoumarin (AMC) was used as a substrate to identify and quantitate caspase 3 activity. AMC is released from the substrate upon cleavage by caspase-3. Free AMC is quantified in cell lysates by ultraviolet (UV) using an excitation wavelength of 365 nm and an emission wavelength of 460 nm. […] Caspase 3 activity was measured on ρ^0 and ρ^+ cells incubated with 0.5 μM staurosporin (n=3), 100 ng/ml human anti-Fas antibody plus 100 ng/ml actinomycin D (n=3), and 20 ng/ml human recombinant tumour necrosis factor α plus 100 ng/ml actinomycin D (n=3) for 16 hours.

[3] = system: NADH dehydrogenase subunit 4 (ND4); details: cited from earlier work
[4] = target: T1, human mtDNA light strand promoter (LSP) transcription (Homo sapiens, UniProt O00411+Q00059); assay: In vitro run off transcription assay with recombinant mtRNAP, TFAM, TFB1M/TFB2M; type: biochemical; details: TFAM (2.5 pmol), mtRNAP/TFB1M (400 fmol) or mtRNAP/TFB2M (400 fmol)
T1 construct: 10xHis (N); 6xHis (C); made in house; host or cells: Sf9 insect cells, recombinant baculovirus (pBacPAK9)
Source text: Recombinant human mitochondrial RNA polymerase (mtRNAP), TFAM, TFB1M, and TFB2M were expressed in a baculovirus system and purified to homogeneity. The activity of these proteins was studied in vitro by run off transcription assays. The template used was a human mtDNA fragment containing the light strand promoter (LSP) followed by a 200 base pairs long stretch of double-stranded DNA. Neither, mtRNAP, TFAM, TFB1M nor TFB2M did alone initiate transcription from the mtDNA promoter. […] However, specific transcription initiation from LSP was obtained by combining either mtRNAP, TFAM and TFB1M or mtRNAP, TFAM and TFB2M. On the basis of these experiments we conclude that both TFB1M and TFB2M are functional homologues of the previously identified Saccharomyces cerevisiae protein Mtf1.
To investigate the promoter specificity of the transcription reaction, we added a double-stranded oligonucleotide containing only the LSP sequence in a 100-fold surplus to the template DNA. […]
DNA fragments corresponding to base pairs 1-741 (LSP/HSP), 1-477 (LSP) or 499-741 (HSP) of human mtDNA [Anderson et al., Nature 290:457 (1981)] were cloned into pUC18. […] The pellets were dissolved in 10 μl of gel loading buffer (98% formamide, 10 mM EDTA pH 8.0, 0.025% xylene cyanol FF, 0.025% bromophenol blue), heated at 95° C. for 5 min, and analyzed on a 5% denaturing polyacrylamide gel in 1×TBE. […]

T1 sequence (O00411 42-1230): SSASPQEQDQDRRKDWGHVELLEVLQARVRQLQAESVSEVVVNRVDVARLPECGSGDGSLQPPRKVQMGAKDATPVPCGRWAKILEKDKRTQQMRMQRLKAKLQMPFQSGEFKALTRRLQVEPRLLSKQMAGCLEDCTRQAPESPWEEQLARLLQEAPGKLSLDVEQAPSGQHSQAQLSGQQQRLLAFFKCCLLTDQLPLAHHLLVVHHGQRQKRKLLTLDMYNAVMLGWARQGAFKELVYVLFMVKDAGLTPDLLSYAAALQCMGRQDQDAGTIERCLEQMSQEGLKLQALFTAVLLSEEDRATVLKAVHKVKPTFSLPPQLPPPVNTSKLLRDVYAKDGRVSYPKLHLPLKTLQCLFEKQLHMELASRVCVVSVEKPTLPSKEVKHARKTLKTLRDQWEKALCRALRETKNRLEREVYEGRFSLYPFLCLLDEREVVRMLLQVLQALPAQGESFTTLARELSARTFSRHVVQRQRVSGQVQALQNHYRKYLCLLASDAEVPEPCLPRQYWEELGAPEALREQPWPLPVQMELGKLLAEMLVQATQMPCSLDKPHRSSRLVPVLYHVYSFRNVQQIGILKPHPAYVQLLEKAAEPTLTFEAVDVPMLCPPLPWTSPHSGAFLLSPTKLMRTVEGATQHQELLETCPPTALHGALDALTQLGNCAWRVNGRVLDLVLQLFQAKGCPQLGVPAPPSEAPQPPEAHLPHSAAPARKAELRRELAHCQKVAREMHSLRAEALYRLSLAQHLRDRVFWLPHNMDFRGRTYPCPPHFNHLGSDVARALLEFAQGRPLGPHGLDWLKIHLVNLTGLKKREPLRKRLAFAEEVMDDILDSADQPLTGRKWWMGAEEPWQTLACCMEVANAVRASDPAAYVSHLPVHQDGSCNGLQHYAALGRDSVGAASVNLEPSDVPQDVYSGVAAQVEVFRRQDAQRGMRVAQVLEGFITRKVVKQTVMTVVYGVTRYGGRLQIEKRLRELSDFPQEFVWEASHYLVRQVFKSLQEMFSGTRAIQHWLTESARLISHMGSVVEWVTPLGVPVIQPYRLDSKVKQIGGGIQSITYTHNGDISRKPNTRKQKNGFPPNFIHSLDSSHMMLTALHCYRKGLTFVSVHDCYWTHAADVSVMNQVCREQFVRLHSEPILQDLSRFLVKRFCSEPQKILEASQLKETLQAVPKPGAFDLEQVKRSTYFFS
T1 sequence (Q00059 43-246): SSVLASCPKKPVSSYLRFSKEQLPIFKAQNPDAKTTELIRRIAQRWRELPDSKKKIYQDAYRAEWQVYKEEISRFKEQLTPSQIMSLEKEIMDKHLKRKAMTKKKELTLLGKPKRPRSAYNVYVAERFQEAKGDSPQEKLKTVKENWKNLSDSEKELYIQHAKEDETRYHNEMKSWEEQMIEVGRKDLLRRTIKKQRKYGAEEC

Molecule	cell death in the cell population [3]	differentiation in the surviving population [3]	other results
Cc1c2oc3c(C)ccc(C(=O)N[C@@H]4C(=O)N[C@H](C(C)C)C(=O)N5CCC[C@H]5C(=O)N(C)CC(=O)N(C)[C@@H](C(C)C)C(=O)O[C@@H]4C)c3nc-2c(C(=O)N[C@@H]2C(=O)N[C@H](C(C)C)C(=O)N3CCC[C@H]3C(=O)N(C)CC(=O)N(C)[C@@H](C(C)C)C(=O)O[C@@H]2C)c(N)c1=O [actinomycin D] (I: T[dV]P[Sar][NMeV] / II: T[dV]P[Sar][NMeV]; ester I:1-I:C, II:1-II:C; linker I:N-II:N via Actinocin(9to1))			apoptosis induced in ρ^0 cells compared with ρ^+ cells (early apoptotic cells, annexin V positive/propidium iodide negative) [1]: no significant differences in the fraction of apoptotic cells; proapoptotic effect on ρ^0 or ρ^+ cells [1]: proapoptotic effect on both ρ^0 and ρ^+ cells
CN[C@@H]1C[C@H]2O[C@@](C)([C@@H]1OC)n1c3ccccc3c3c4c(c5c6ccccc6n2c5c31)C(=O)NC4 [STP, staurosporine]			apoptosis induced in ρ^0 cells compared with ρ^+ cells (early apoptotic cells, annexin V positive/propidium iodide negative) [1]: more STP-induced apoptosis in cells with mtDNA (ρ^+ cells) than in their mtDNA-less derivatives; induction of caspase 3 activity [2]: significant induction of caspase 3 activity in both ρ^0 and ρ^+ cells
C=C(C)[C@H]1Cc2c(ccc3c2O[C@@H]2COc4cc(OC)c(OC)cc4[C@@H]2C3=O)O1 [Rotenone]	increase cell death	induce differentiation	
Oligomycine	increase cell death	induce differentiation	
TNFα			proapoptotic effect on ρ^0 or ρ^+ cells [1]: no proapoptotic effect
Antimycin A	increase cell death	induce differentiation	
TFB2M: recombinant human mitochondrial transcription factor B2, homologue of yeast Mtf1, expressed in a baculovirus system (protein) AGRFCILGSEAATRKHLPARNHCGLSDSSPQLWPEPDFRNPPRKASKASLDFKRYVTDRRLAETLAQIYLGKPSRPPHLLLECNPGPGILTQALLEAGAKVVALESDKTFIPHLESLGKNLDGKLRVIHCDFFKLDPRSGGVIKPPAMSSRGLFKNLGIEAVPWTADIPLKVVGMFPSRGEKRALWKLAYDLYSCTSIYKFGRIEVNMFIGEKEFQKLMADPGNPDLYHVLSVIWQLACEIKVLHMEPWSSFDIYTRKGPLENPKRRELLDQLQQKLYLIQMIPRQNLFTKNLTPMNYNIFFHLLKHCFGRRSATVIDHLRSLTPLDARDILMQIGKQEDEKVVNMHPQDFKTLFETIERSKDCAYKWLYDETLEDR			transcriptional activation compared with TFB1M [4]: at least one order of magnitude greater
